# Test results taken from patent US20250090576A1, “METHODS FOR TREATING NONTUBERCULOUS MYCOBACTERIA DISEASES” (Microbion Corporation, priority 2022, published 2025).
# Legend:
# [1] = system: M. abscessus cystic fibrosis patient strain 00703 in THP-1 macrophages; assay: Mycobacterial survival (CFU) in infected THP-1 macrophages; assay type: cell-based; conditions: CF patient strain 00703; after 3 days; drugs at MIC
# Description: (§1) THP-1 macrophages were differentiated with 50 ng/ml PMA for 24 hours, followed by 24 hours in media prior to infection. Differentiated THP-1 macrophages were either infected with M. avium strains or M. abscessus strains for 1 hour with an multiplicity of infection (MOI) of 5 or uninfected. Cells were washed twice, followed by 1 hour of antibiotic treatment with 200 μg/ml of amikacin to remove extracellular bacteria. After the antibiotic step, cells were washed once more and BisEDT (BIZ) or amikacin was added once to selected wells (see in vitro doses below).
# (§2) The treatments included: vehicle, amikacin, Soluble BisEDT (S Biz), Insoluble BisEDT (I Biz), and amikacin+BisEDT. The time points for sample preparation were 72 h for M. abscessus strains and 4- and 7-days post infection for M. avium strains. At the indicated timepoints cell media was removed and replaced with 400 ul of 0.1% triton x-100 in H2O for lysis. Wells were pipetted 25 times to disrupt cells then diluted and plated for CFU enumeration.
# [2] = system: M. abscessus cystic fibrosis patient strain 01715 in THP-1 macrophages; assay: as above; assay type: cell-based; conditions: CF patient strain 01715; after 3 days; drugs at MIC
# Description: as §1, §2
# [3] = system: M. abscessus strain 19977 in THP-1 macrophages; assay: as above; assay type: cell-based; conditions: after 3 days, drugs at MIC
# Description: as §1, §2
# [4] = system: CF patient strain 00133 in THP-1 macrophages; assay: as above; assay type: cell-based, M. avium; conditions: amikacin-resistant CF patient strain 00133; each of the BisEDT formulations; 4 and 7 days
# Description: as §1, §2
# [5] = system: M. abscessus strains in THP-1 macrophages; assay: Infected THP-1 macrophages, summary over strains; assay type: cell-based; conditions: 3 days post-treatment
# Description: as §1, §2
# [6] = system: three clinical isolates of M. avium in macrophages; assay: Infected THP-1 macrophages, summary over strains; assay type: cell-based; conditions: three clinical isolates of M. avium incl. amikacin-resistant isolate
# Description: as §1, §2
# [7] = system: M. abscessus in THP-1 macrophages; assay: TEM of infected THP-1 macrophages (mechanism of action); assay type: cell-based; conditions: 4 μg/ml insoluble BisEDT; 24 h and 48 h
# Description: (§3) THP-1 macrophages were differentiated with 50 ng/ml PMA for 24 hours, followed by 24 hours in media prior to infection. Differentiated THP-1 macrophages were infected with M. avium or M. abscessus for 1 hour with a multiplicity of infection (MOI) of 10. Infected cells were washed twice, followed by 1 hour of antibiotic treatment with 200 μg/ml of amikacin to remove extracellular bacteria. After the antibiotic step, cells were washed once more and 4 μg/ml insoluble BisEDT (BIZ) was added to selected wells. The treatments included: (1) untreated, (2) untreated+infected with MAH 104, (3) untreated+infected with M. abscessus, (4) BIZ treated, (5) BIZ treated+infected with MAH 104, and (6) BIZ treated+infected with M. abscessus. The time points for sample preparation were 24 h and 48 h.p.i. Cells were not washed prior to transmission electron microscopy TEM sample preparation, to preserve any extracellular bacteria that may have been present. Cells were detached by treatment with 5 mM EDTA for […], quenched with 1×HBSS, and suspended in fixative buffer with 2.5% glutaraldehyde, 1% formaldehyde, and 0.1 M sodium cacodylate for 24 hours prior to submission to the electron microscopy facility for processing. Samples were sectioned, dehydrated, and visualized by a FEIT Titan 80-200 TEM/STEM microscope.
# [8] = system: M. avium (MAH 104) in THP-1 macrophages; assay: as above; assay type: cell-based; conditions: 4 μg/ml insoluble BisEDT; 24 h and 48 h
# Description: as §3
# [9] = system: M. abscessus strain 19977; assay: Chronic M. abscessus lung infection in SCID/Beige mice, inhalation treatment 28 days; assay type: in vivo; conditions: for CFU count in lung homogenates, effect in words: inhaled
# Description: A total of sixty female SCID/Beige mice between 6-8 weeks of age were used. Mice were placed up to 4 animals per cage and allowed 1 week of acclimation prior to infection.
# Inoculums of M. abscessus strain 19977 (MAB) used in this study were made from highly virulent frozen stocks with low passage numbers. Bacteria were allowed to grow to log phase after 4 days on 7H10 media agar plates at 37° C. Once confluent, inoculums were made by suspending bacteria at 10^9 in Hank's balanced salt solution (HBSS) as determined by optical density (O.D.) and further quantified by serial dilution to determine the CFU/mL of suspension. At this higher concentration of bacteria, only 20 μL of inoculum was necessary to deposit […] bacteria per mouse.
# On the day of infection mice were anesthetized with isoflurane by the drop jar method. Mice were scruffed in a standard one-handed grip and the nose of the mouse is held of a tube containing gauze containing a small amount of isoflurane. Mice were monitored for breathing and once rapid breaths have slowed down initially the mouse is removed from direct anesthesia and 20 μL of bacterial suspension was deposited on the left nostril. The mice then slowly breath in the droplet. Each mouse was then held in hand until complete consciousness was obtained and then the mouse was replaced into its home cage. After infection was initiated, 3 weeks were allowed to pass in order to allow the bacteria to establish a chronic lung pathology for eventual treatment.
# After establishing each infection, 12 mice were euthanized the day before treatment began to determine the baseline bacterial load. Mice were euthanized using CO2 in accordance with the recommendations of the Guide for the Care and Use of Laboratory Animals (NRC 2011). Lungs and spleens were collected and homogenized then serial diluted for CFU enumeration.
# A nose-only inhalation exposure chamber from CH technologies was used for this experiment. Mice were split into four treatment groups, Vehicle (buffer containing no BisEDT), amikacin (100 μg/kg/day), BisEDT “low” (200 μg/kg/day), and BisEDT “high” (1000 μg/kg/day). Each treatment group consisted of 12 mice. Ten of these mice were used for CFU determination and two mice are used for histology/pathology/lung pharmacokinetics. Treatment was conducted 6 days a week over the course of 28 days total. To create the correct level of deposited dose of each drug tested, 10 mL of test article were made. Amikacin in HBSS at 20 mg/mL was made and stored at 4° C. until needed. […]
# After 28 days of treatment with BisEDT, animals were euthanized by Co2 and secondary cardiac puncture to collect whole blood for quantitation of BisEDT concentration. […] CFUs were determined after serial dilution. […]
# [10] = system: M. abscessus from lung homogenates; assay: Resistance plating of treated mouse lung homogenates on agar with 1 μg/ml BisEDT; assay type: cell-based; conditions: mice treated with BisEDT for 28 days
# Description: Lung homogenates from the M. abscessus […] infection were thawed from frozen at 37° C. for 2 hours. To reduce the effect of the Dey-Engley deactivation buffer, mouse homogenates were diluted 1:10 in water before replating samples onto 7H10 agar plates containing 1 μg/ml BisEDT (MIC level). Once plated samples were incubated at 37° C. over 3 days and plate colonies were counted to determine CFUs of resistance.
# Colony forming units were compared from the initial plating with no BisEDT in the agar plates; to replating on agar plates containing 1 μg/mL BisEDT.
# [11] = system: M. abscessus isolates from murine lung homogenates; assay: MIC analysis of select bacterial isolates from murine lung homogenates; assay type: cell-based; conditions: isolates from treated mouse lungs
# [12] = Earlier 28-day tolerability work on rats; conditions: 28 days, doses as high as
smiles,measurement,setting,value
"C1C[S][Bi]([S]CC[S][Bi]2[S]CC[S]2)[S]1 [BisEDT, bismuth-1,2-ethanedithiol]","mycobacterial survival (CFU, bacterial load) in THP-1 macrophages, in words",[1],greatly reduced bacterial load in macrophages
same,"mycobacterial survival (CFU, bacterial load) in THP-1 macrophages, in words",[2],greatly reduced bacterial load in macrophages
same,"mycobacterial survival (CFU, bacterial load) in THP-1 macrophages, in words",[3],reduced bacterial loads in THP-1 cells
same,"mycobacterial survival (CFU) in THP-1 macrophages, in words",[4],bacteriostatic effect
same,"effect in infected macrophages, in words",[5],bactericidal by itself
same,"effect in infected macrophages, in words",[6],bactericidal
same,TEM observation on mycobacteria cell wall,[7],"loss of the integrity of the polar region initially, and the whole cell wall in a more advanced stage"
same,TEM observation on mycobacteria cell wall,[8],"loss of the integrity of the polar region initially, and the whole cell wall in a more advanced stage"
same,"lung CFU response, in words",[9]; 200 and 1000 μg/kg/day inhaled,dose-dependent response
same,tolerability in infected mice,"[9]; 200 and 1000 μg/kg/day inhaled, mice responsive, normal weight range",well tolerated
same,"CFU count in lung homogenates, effect in words","[9]; BisEDT high, 1000 μg/kg",bactericidal
same,"CFU count in lung homogenates, effect in words","[9]; BisEDT low, 200 μg/kg",bacteriostatic effect
same,"development of resistance, in words",[10],little development of resistance
same,"MIC of select isolates, in words",[11],did not show a change in resistance
same,"dose with high tolerability, without adverse effects",[12],59 µg/kg/day
